Our source for the Kd values is paper PMC11923874, “Integration of Phytomelatonin Signaling With Jasmonic Acid in Wound‐induced Adventitious Root Regeneration” (Advanced Science, 2025).

One experiment addresses T1, SlPMTR2 (Solanum lycopersicum, UniProt A0A3Q7GXJ6).
T1 construct: gene LOC101260652; 6xHis-MBP-SlPMTR2-GFP fusion, pMAL-c2, E. coli Rosetta (DE3), Ni-NTA purified; seven-transmembrane protein; native length 309 residues (fragments 1-140 and 141-309); tags kept
T1 sequence (A0A3Q7GXJ6 1-309): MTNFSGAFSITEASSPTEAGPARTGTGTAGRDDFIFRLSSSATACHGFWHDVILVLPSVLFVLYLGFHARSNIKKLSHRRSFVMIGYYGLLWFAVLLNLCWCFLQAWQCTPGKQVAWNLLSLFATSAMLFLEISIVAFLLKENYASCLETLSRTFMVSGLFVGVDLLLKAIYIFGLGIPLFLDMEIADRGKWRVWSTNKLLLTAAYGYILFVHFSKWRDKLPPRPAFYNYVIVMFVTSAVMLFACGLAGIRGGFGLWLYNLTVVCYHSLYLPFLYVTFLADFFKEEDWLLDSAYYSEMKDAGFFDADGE
The experiment in a line: microscale thermophoresis (GFP fusion). It is filed as binding. (In general: MST reads how a fluorescent partner responds to local heating, with and without ligand.)

Another experiment concerns the target T2, SlPMTR1.
T2 construct: 6xHis-MBP-SlPMTR1-GFP fusion, pMAL-c2, E. coli Rosetta (DE3), Ni-NTA purified; seven-transmembrane protein; native length 300 residues (fragments 1-134 and 135-300); tags kept
The experiment in a line: microscale thermophoresis (GFP fusion). It is filed as binding, Solanum lycopersicum. Particulars: 22 °C, 30 min incubation; His-MBP-GFP fusion protein at 1 mg/ml.

The term Kd denotes the equilibrium constant for the complex coming apart. A high value points to a looser complex. For the compound `COc1ccc2[nH]cc(CCNC(C)=O)c2c1` [melatonin], the Kd on SlPMTR2 amounted to 419 nM; on SlPMTR1, 50.7 nM.
